Test results reported in ChEMBL document CHEMBL1649180, “Early postpartum pharmacokinetics of lopinavir initiated intrapartum in Thai women” (Antimicrob Agents Chemother, 2009).

Tests used:
[1] = Cmax in HIV-infected Thai pregnant women at 100 mg, po bid initiated intrapartum in combination with 400 mg, po bid Lopinavir measured within 72 hrs postpartum; assay type: ADME, organism-based; design: dose 100 mg, route oral; conditions: female, human, in vivo
[2] = AUC (0 to 12 hrs) in HIV-infected Thai pregnant women at 100 mg, po bid initiated intrapartum in combination with 400 mg, po bid Lopinavir measured within 72 hrs postpartum; assay type: ADME, organism-based; design: time < 12 hr, dose 100 mg, route oral; conditions: female, human, plasma
[3] = Tmax in HIV-infected Thai pregnant women at 100 mg, po bid initiated intrapartum in combination with 400 mg, po bid Lopinavir measured within 72 hrs postpartum; assay type: ADME, organism-based; conditions: female, human, in vivo
[4] = Drug level in HIV-infected Thai pregnant women serum at 100 mg, po bid initiated intrapartum in combination with 400 mg, po bid Lopinavir measured 2 hrs post last dose; assay type: ADME, organism-based; conditions: female, human, read-out: Drug uptake
[5] = Drug level in HIV-infected Thai pregnant women serum at 100 mg, po bid initiated intrapartum in combination with 400 mg, po bid Lopinavir measured 4 hrs post last dose; assay type: ADME, organism-based; conditions: female, human, read-out: Drug uptake
[6] = Drug level in HIV-infected Thai pregnant women serum at 100 mg, po bid initiated intrapartum in combination with 400 mg, po bid Lopinavir measured 12 hrs post last dose; assay type: ADME, organism-based; conditions: female, human, read-out: Drug uptake
Serum [7] = test: Drug level in HIV-infected Thai pregnant women serum before intrapartum initiation of 100 mg, po bid in combination with 400 mg, po bid Lopinavir; assay type: ADME, organism-based; conditions: human, in vivo
[8] = Drug level in HIV-infected Thai pregnant women serum at 100 mg, po bid initiated intrapartum administered for 30 days in combination with 400 mg, po bid Lopinavir measured before administering last dose; assay type: ADME, organism-based; conditions: female, human, read-out: Drug uptake
[9] = Drug level in HIV-infected Thai pregnant women serum at 100 mg, po bid initiated intrapartum administered for 30 days in combination with 400 mg, po bid Lopinavir measured 2 hrs post last dose; assay type: ADME, organism-based; conditions: female, human, read-out: Drug uptake
[10] = Drug level in HIV-infected Thai pregnant women serum at 100 mg, po bid initiated intrapartum administered for 30 days in combination with 400 mg, po bid Lopinavir measured 4 hrs post last dose; assay type: ADME, organism-based; conditions: female, human, read-out: Drug uptake
Serum [11] = test: Ratio of drug level before intrapartum initiation to 30 days pre-last dose of HIV-infected Thai pregnant women serum at 100 mg, po bid in combination with 400 mg, po bid Lopinavir; assay type: ADME, organism-based; conditions: human, in vivo, 720 h
Serum [12] = test: Ratio of drug level in 2 hrs to 30 days post last dose of HIV-infected Thai pregnant women serum at 100 mg, po bid initiated intrapartum in combination with 400 mg, po bid Lopinavir; assay type: ADME, organism-based; conditions: human, in vivo
Serum [13] = test: Ratio of drug level in 4 hrs to 30 days post last dose of HIV-infected Thai pregnant women serum at 100 mg, po bid initiated intrapartum in combination with 400 mg, po bid Lopinavir; assay type: ADME, organism-based; conditions: human, in vivo
[14] = Cmax in HIV-infected Thai pregnant women at 400 mg, po bid initiated intrapartum in combination with 100 mg, po bid ritonavir measured within 72 hrs postpartum; assay type: ADME, organism-based; design: dose 400 mg, route oral; conditions: female, human, in vivo
[15] = AUC (0 to 12 hrs) in HIV-infected Thai pregnant women at 400 mg, po bid initiated intrapartum in combination with 100 mg, po bid ritonavir measured within 72 hrs postpartum; assay type: ADME, organism-based; design: time < 12 hr, dose 400 mg, route oral; conditions: female, human, plasma
[16] = Tmax in HIV-infected Thai pregnant women at 400 mg, po bid initiated intrapartum in combination with 100 mg, po bid ritonavir measured within 72 hrs postpartum; assay type: ADME, organism-based; conditions: female, human, in vivo
[17] = Drug level in HIV-infected Thai pregnant women serum at 400 mg, po bid initiated intrapartum in combination with 100 mg, po bid ritonavir measured 2 hrs post last dose; assay type: ADME, organism-based; conditions: female, human, read-out: Drug uptake
[18] = Drug level in HIV-infected Thai pregnant women serum at 400 mg, po bid initiated intrapartum in combination with 100 mg, po bid ritonavir measured 4 hrs post last dose; assay type: ADME, organism-based; conditions: female, human, read-out: Drug uptake
[19] = Drug level in HIV-infected Thai pregnant women serum at 400 mg, po bid initiated intrapartum in combination with 100 mg, po bid ritonavir measured 12 hrs post last dose; assay type: ADME, organism-based; conditions: female, human, read-out: Drug uptake
Serum [20] = test: Drug level in HIV-infected Thai pregnant women serum before intrapartum initiation of 400 mg, po bid in combination with 100 mg, po bid ritonavir; assay type: ADME, organism-based; conditions: human, in vivo
[21] = Drug level in HIV-infected Thai pregnant women serum at 400 mg, po bid initiated intrapartum administered for 30 days in combination with 100 mg, po bid ritonavir measured before administering last dose; assay type: ADME, organism-based; conditions: female, human, read-out: Drug uptake
[22] = Drug level in HIV-infected Thai pregnant women serum at 400 mg, po bid initiated intrapartum administered for 30 days in combination with 100 mg, po bid ritonavir measured 2 hrs post last dose; assay type: ADME, organism-based; conditions: female, human, read-out: Drug uptake
[23] = Drug level in HIV-infected Thai pregnant women serum at 400 mg, po bid initiated intrapartum administered for 30 days in combination with 100 mg, po bid ritonavir measured 4 hrs post last dose; assay type: ADME, organism-based; conditions: female, human, read-out: Drug uptake
Serum [24] = test: Ratio of drug level before intrapartum initiation to 30 days pre-last dose of HIV-infected Thai pregnant women serum at 400 mg, po bid in combination with 100 mg, po bid ritonavir; assay type: ADME, organism-based; conditions: human, in vivo, 720 h
Serum [25] = test: Ratio of drug level in 2 hrs to 30 days post last dose of HIV-infected Thai pregnant women serum at 400 mg, po bid initiated intrapartum in combination with 100 mg, po bid ritonavir; assay type: ADME, organism-based; conditions: human, in vivo
Serum [26] = test: Ratio of drug level in 4 hrs to 30 days post last dose of HIV-infected Thai pregnant women serum at 400 mg, po bid initiated intrapartum in combination with 100 mg, po bid ritonavir; assay type: ADME, organism-based; conditions: human, in vivo
Homo sapiens = test: Toxicity in HIV-infected Thai pregnant women assessed as adverse effect at 400 mg, po bid initiated intrapartum administered for 30 days in combination with 100 mg, po bid ritonavir; assay type: organism-based; conditions: in vivo, 720 h

**Q.** Which Cmax [1] does the source give for `CC(C)c1nc(CN(C)C(=O)N[C@H](C(=O)N[C@@H](Cc2ccccc2)C[C@H](O)[C@H](Cc2ccccc2)NC(=O)OCc2cncs2)C(C)C)cs1` [RITONAVIR] here?
**A.** 600 ng/mL

**Q.** And the AUC at 12 h [2]?
**A.** 4270 ng·h/mL

**Q.** And the Tmax [3]?
**A.** 3.9 h

**Q.** And the concentration at 2 h [4]?
**A.** 450 ng/mL

**Q.** What about the concentration at 4 h [5] of the same molecule?
**A.** 580 ng/mL

**Q.** And the concentration at 12 h [6]?
**A.** 100 ng/mL

**Q.** And the Drug uptake (Serum [7])?
**A.** 0.16 µg/mL

**Q.** And the concentration at 720 h [8]?
**A.** 290 ng/mL

**Q.** What about the concentration at 2 h [9] of the same molecule?
**A.** 610 ng/mL

**Q.** And the concentration at 4 h [10]?
**A.** 810 ng/mL

**Q.** What about the Drug uptake (Serum [11]) of the same molecule?
**A.** 0.54

**Q.** And the Drug uptake (Serum [12])?
**A.** 0.76

**Q.** What about the Drug uptake (Serum [13]) of the same molecule?
**A.** 0.68

**Q.** What does the source list for `Cc1cccc(C)c1OCC(=O)N[C@@H](Cc1ccccc1)[C@@H](O)C[C@H](Cc1ccccc1)NC(=O)[C@H](C(C)C)N1CCCNC1=O` [LOPINAVIR]?
**A.** Cmax [14]: 11200 ng/mL; AUC at 12 h [15]: 99700 ng·h/mL; Tmax [16]: 3.9 h; concentration at 2 h [17]: 10500 ng/mL; concentration at 4 h [18]: 10800 ng/mL; concentration at 12 h [19]: 5180 ng/mL; Drug uptake (Serum [20]): 6.08 µg/mL; concentration at 720 h [21]: 9170 ng/mL; concentration at 2 h [22]: 11700 ng/mL; concentration at 4 h [23]: 13000 ng/mL; Drug uptake (Serum [24]): 0.66; Drug uptake (Serum [25]): 0.85; Drug uptake (Serum [26]): 0.81; Activity (Homo sapiens): Non-toxic
